Experimental data reported in patent US11246873B2, “Directed differentiation of oligodendrocyte precursor cells to a myelinating cell fate” (The Scripps Research Institute, priority 2011, dated 2022).
“Also recorded” adds a separate entry of the source.

Tests used:
[1] = tested on: PLP induced EAE mice
Description: (A-E) SJL mice were immunized with proteolipid peptide (PLP) and pertussis toxin and monitored daily with scoring on the standard clinical EAE scale (0-5). Compounds were administered daily for the duration of the study in saline at 10 mg/kg via intra-peritoneal injection (0.1 ml), starting on the day of the appearance of clinical EAE symptoms (day 10). […] Mean clinical EAE score and standard error of mean (SEM) are shown for each study group.
FIG. 25. […] EAE was induced in mice using PLP and pertussis toxin. […] Prophylactic dosing is defined as administration of compound commenced on the day of PLP injection. Error bars indicate standard deviation of the mean within each group of 8 mice.
(A-F) EAE was induced in mice using PLP and pertussis toxin. […] Error bars indicate standard deviation of the mean within each group of 8 mice.
(A-F) EAE was induced in mice by injecting PLP in complete Freund's adjuvant (CFA) and pertussis toxin, and the animals were scored daily for clinical severity of disease on a scale of 0-5. […] Error bars indicate standard deviation of the mean within each group of 8-10 mice.
10 week old SJL mice were immunized with PLP emulsion and pertusis toxin to induce EAE. […] Compounds were administered daily via intraperitoneal injection of 100 ul in sterile saline at 10 mg/kg alone or in combination with mycophenolate motefil in sterile saline at pH 5 at 20 mg/kg. Compound administration was initiated at disease onset (day 10) while mycophenolate motefil administration was initiated on Day 14. The mice were scored daily on a standard EAE scale of 0-5.
This model is most commonly used to evaluate the potential efficacy of immunomodulatory agents, but can also be used to determine the effectiveness of promyelinating agents that function by enhancing OPC differentiation (M. Fernandez et al., Proc Natl Acad Sci U.S.A, 101, 16363 (2004); X. Lee et al., J Neurosci, 27, 220 (2007); reviewed in R. J. Franklin, C. Ffrench-Constant, Nat Rev Neurosci, 9, 839 (2008)). […] We next evaluated efficacy when the drug is dosed therapeutically, by starting daily injections at the first sign of disease onset.
For the treatment of MS, an OPC differentiation inducing drug would most likely be introduced clinically as part of a combination therapy with an immunosuppressive drug. […] The former reduces T-cell proliferation and alters cytokine expression (A. Noronha, A. Toscas, M. A. Jensen, J Neuroimmunol, 46, 145 (1993); A. Noronha, A. Toscas, M. A. Jensen, Ann Neurol, 27, 207 (1990)), while the latter is an S1P agonist that regulates T-cell trafficking (V. Brinkmann et al., J Biol Chem, 277, 21453 (2002); V. Brinkmann et al., Nat Rev Drug Discov, 9, 883 (2010)).

[2] = tested on: rat optic nerve derived OPCs; experiment: High content imaging assay of OPC differentiation (MBP immunostaining, OPERA); format: cell-based; details: OPCs in differentiation medium (2 ng/ml PDGF), 6 days
Description: FIG. 1A-C. […] The calculated EC50 values were determined using appropriate Graphpad Prism 5.0 curve fitting software. […] OPCs were plated in 384 well plates at 1000 cells per well in OPC media containing basal PDGF-αα (2 ng/mL) and treated with serial dilutions of compounds. Following six days of compound treatment, cells were fixed and subjected to immunofluorescence analysis using anti-myelin basic protein (MBP) antibody. Image acquisition and quantification of MBP staining was performed using the OPERA imaging system.
FIG. 11A-B. Screen to identify inducers of OPC differentiation. (A) OPCs were maintained as proliferating A2B5-positive cells under basal growth conditions (Neurobasal medium, B27 supplement without Vitamin A, non-essential amino acids, L-Glutamine, 30 ng/ml PDGF). OPCs were plated in basal differentiation media (Neurobasal medium, B27 supplement without Vitamin A, non-essential amino acids, L-Glutamine, 2 ng/ml PDGF), treated with DMSO (<0.1%) or thyroid hormone (1 uM), fixed after 6 days in culture, and stained using antibodies for CNP, O4, or MBP. […] (B) Screen strategy using A2B5 positive OPCs cultured under basal differentiation conditions and treated with compounds for 6 days to identify small molecules that induce the differentiation of OPCs to mature, MBP expressing oligodendrocytes.
FIG. 12A-B. Primary hit confirmation. (A) Dose response assay used to confirm primary screening hits and determine potency (EC50). (EC50) is defined as the concentration that results in a half maximal increase in the percentage of total cells that express MBP as detected by immunostaining. […] Cells were fixed and immunostained using antibodies for MBP. Error bars represent standard deviations from 3 replicate experiments. […]
FIG. 21. […] OPCs were plated in differentiation medium (2 ng/ml PDGF) and treated with various concentrations of compounds for 6 days. Cells were fixed and immunostained for MBP.
A large-scale small molecule screen was conducted to identify small molecules that promote the differentiation of oligodendrocyte precursor cells (OPCs) to a mature myelinating fate. High content imaging was used to detect in-well differentiation of rat optic nerve derived OPCs. Rat optic nerve derived OPCs were expanded en masse in OPC media containing 30 ng/mL PDGFαα. To screen for small molecule inducers of OPC differentiation, OPCs (cultured for fewer than 15 passages) were plated in poly-D-lysine coated 384 well culture plates in OPC Media containing 2 ng/mL PDGFαα and immediately treated with compounds at a final concentration of 6 μM (0.6% DMSO). Compound treated cells were incubated at 37° C., 5% CO2 for 6 days. At the end of 6 days, cells were fixed in 4% paraformaldehyde and subjected to immunofluorescence analysis. Anti-Myelin Basic Protein monoclonal antibody (a.a. 129-138, clone 1 monoclonal antibody, Millipore) (1:1000 dilution) in blocking buffere solution (3% BSA, 0.3% Triton X-100 in PBS) was added to fixed and washed cells and incubated at 4° C. overnight.

[3] = tested on: OPCs; experiment: qRT-PCR of MBP and MOG expression in compound treated OPCs; format: cell-based, rat; details: EC90 concentrations, 6 days
Description: FIG. 2A-C. […] (A) Western blot analysis of OPCs treated with compounds at EC90 concentrations for 6 days. Total protein was isolated from cell pellets and probed for myelin basic protein (MBP) and myelin oligodendrocyte glycoprotein (MOG) using specific antibodies. (B-C) Quantitative RT-PCR (qRT-PCR) analysis of OPCs treated with compounds at EC90 concentrations for 6 days. Total RNA was isolated from cell pellets and reverse transcribed. MBP and MOG expression was quantified using specific probes and Taqman-based qRT-PCR. Expression was normalized to the internal controls β-actin and GAPDH. Fold change in gene expression over DMSO treated control cells is plotted for MBP (B) and MOG (C).

[4] = tested on: OPCs; experiment: Western blot of MBP and MOG in compound treated OPCs; format: cell-based, rat; details: OPCs treated 6 days
Description: FIG. 2A-C. Neurotransmitter receptor modulating agents induce the differentiation of OPCs to a myelinating oligodendrocyte cell fate. (A) Western blot analysis of OPCs treated with compounds at EC90 concentrations for 6 days. Total protein was isolated from cell pellets and probed for myelin basic protein (MBP) and myelin oligodendrocyte glycoprotein (MOG) using specific antibodies. (B-C) Quantitative RT-PCR (qRT-PCR) analysis of OPCs treated with compounds at EC90 concentrations for 6 days. Total RNA was isolated from cell pellets and reverse transcribed. MBP and MOG expression was quantified using specific probes and Taqman-based qRT-PCR. Expression was normalized to the internal controls β-actin and GAPDH. Fold change in gene expression over DMSO treated control cells is plotted for MBP (B) and MOG (C).
FIG. 13. […] After 6 days in culture, cells were analyzed for MBP and MOG expression by Western blot.

[5] = tested on: OPCs; experiment: Immunofluorescence analysis of mature oligodendrocyte markers (MBP, MOG, CNP, GalC, O1, O4); format: cell-based, rat; details: OPCs treated 6 days
Description: FIG. 3. Immunofluorescence analysis of compound treated OPCs using mature oligodendrocyte specific markers. Immunofluorescence staining using specific antibodies for MBP, MOG, and 2′,3′-cyclic nucleotide 3′ phosphodiesterase (CNP). Nuclei were identified using DAPI.
FIG. 4. Immunofluorescence analysis of compound treated OPCs using mature oligodendrocyte specific markers. Immunofluorescence staining using specific antibodies for galactocereberoside (GalC), oligodendrocyte marker O1 (O1) and oligodendrocyte marker O4 (O4). Nuclei were identified using DAPI.
FIG. 14. Compound treatment induces the differentiation of OPCs to mature oligodendrocytes. […] Cells were fixed and immunostained for MBP, MOG, CNP, GalC, O1, or O4.
Immunofluorescence was also used to confirm that the hits were able to induce oligodendrocyte maturation.

[6] = tested on: muscarinic receptor; experiment: Carbachol co-treatment in compound induced OPC differentiation (MBP staining); format: cell-based, rat; details: compounds at EC90 (benztropine 2.3 uM), serial dilutions of carbachol, 6 days
Description: Following 6 days of treatment, cells were fixed and stained for MBP. Plates were imaged using the OPERA high content screening system and MBP staining was quantified as described. […] OPCs were plated in 384-well plates at 5000 cells per well in media containing basal PDGF-αα. Cells were equilibrated with Ca^2+ sensitive Fluo-3AM® dye in HBSS for 30 min. […] Ca^2+ influx was immediately measured using the FLIPR TETRA® system.
OPCs express mAChRs, predominantly subtypes M1, M3, and M5 (F. Ragheb et al., J Neurochem, 77, 1396 (2001)). […] Activation of M1 and M3 mAChRs is coupled to downstream signal transduction events through phospholipase C, which results in increased intracellular calcium concentrations (F. Ragheb et al., J Neurochem, 77, 1396 (2001)) (FIG. 23C). M2 and M4 mAChR activation inhibits adenylatecyclase, leading to decreased intracellular cAMP levels (C. C. Felder, FASEB J, 9, 619 (1995); M. Lopez-Ilasaca et al., Science, 275, 394 (1997)). […] Acetylcholine is a known regulator of OPC proliferation and, as such, muscarinic receptor subtypes represent a reasonable class of therapeutic targets for the modulation of OPC proliferation and differentiation (F. De Angelis et al., Dev Neurobiol, (2011)).

Question: `CCCCCCCCc1ccc(CCC(N)(CO)CO)cc1` [FTY720, fingolimod] was tested. Which “maximal observed tolerated dose” value ([1]; EAE mice) did it give?
Answer: ~1 mg/kg

Question: For `CN1[C@@H]2CC[C@H]1C[C@@H](OC(=O)C(CO)c1ccccc1)C2` (stereo partly shown) [atropine], which “induction of OPC differentiation (MBP staining)” value (“induction of OPC differentiation” below) [2] is on record?
Answer: induce OPC differentiation; also recorded: induced OPC differentiation in a dose dependent manner; also recorded: induced differentiation of OPCs in a dose dependent manner

Question: How did the “induction of MBP expression (qRT-PCR) over DMSO” value [3] turn out when `CN1CCC[C@@H]1CCO[C@](C)(c1ccccc1)c1ccc(Cl)cc1` [clemastine] was run?
Answer: two-fold

Question: What about the “induction of MOG expression (qRT-PCR) over DMSO” value [3] of the same compound?
Answer: two-fold

Question: What about the “MBP and MOG expression (Western blot)” value [4] of the same compound?
Answer: positive

Question: And the “markers of mature myelinating oligodendrocytes (MBP, MOG, CNP, GalC, O1, O4) by immunofluorescence” value [5]?
Answer: confirmed the presence of multiple markers of mature myelinating oligodendrocytes

Question: What about the “effect of carbachol on compound induced OPC differentiation” value [6] of the same compound?
Answer: inhibited; also recorded: dose dependent inhibition

Question: What about the “induction of OPC differentiation” value [2] of the same compound?
Answer: promote OPC differentiation

Question: Which “induction of OPC differentiation” value [2] does the source give for `CC(C)[N+]1(C)[C@@H]2CC[C@H]1C[C@@H](OC(=O)C(CO)c1ccccc1)C2` (stereo partly shown) [ipratropium] here?
Answer: induce OPC differentiation; also recorded: induced OPC differentiation in a dose dependent manner; also recorded: induced differentiation of OPCs in a dose dependent manner

Question: With `CCN(CC)CC#CCOC(=O)C(O)(c1ccccc1)C1CCCCC1` (stereo not shown) [oxybutynin] as the compound, how does the “induction of OPC differentiation” value [2] read?
Answer: induced OPC differentiation in a dose dependent manner; also recorded: induced differentiation of OPCs in a dose dependent manner

Question: How did the “induction of OPC differentiation” value [2] turn out when `CCCOC(C(=O)OC1CCN(C)CC1)(c1ccccc1)c1ccccc1` [propiverine] was run?
Answer: induced OPC differentiation in a dose dependent manner; also recorded: induced differentiation of OPCs in a dose dependent manner

Question: `CC(C)(C)NCC(O)c1ccc(O)c(CO)c1` (stereo not shown) [salbutamol] was tested. Which “clinical severity versus vehicle, dosing after disease onset (therapeutic mode)” value ([1]; compounds 10 mg/kg i.p. daily from first EAE symptoms, mycophenolate 20 mg/kg from day 14) did it give?
Answer: significantly decreased clinical severity in the relapse phase

Question: How did the “induction of OPC differentiation” value [2] turn out when `CN1[C@@H]2C[C@@H](OC(=O)[C@H](CO)c3ccccc3)C[C@H]1[C@@H]1O[C@@H]12` [scopolamine] was run?
Answer: induced OPC differentiation in a dose dependent manner; also recorded: induced differentiation of OPCs in a dose dependent manner

Question: Which results are given for `N[C@@H](Cc1cc(I)c(Oc2ccc(O)c(I)c2)c(I)c1)C(=O)O` [thyroid hormone, triiodothryonine]?
Answer: markers of mature myelinating oligodendrocytes (MBP, MOG, CNP, GalC, O1, O4) by immunofluorescence [5]: expression of mature oligodendrocyte markers; induction of OPC differentiation (MBP staining) [2]: induces the differentiation of OPCs into mature oligodendrocytes that express MBP; induction of OPC differentiation (MBP staining) ([2]; listed as T3): results in the differentiation of OPCs to MBP positive oligodendrocytes
